Test results: US20250195540A1, “Use of dehydroepiandrosterone (DHEA) in preparation of drug for preventing and treating ophthalmic myopia, dosage forms of DHEA, and preparation methods of dosage forms” (Zhongshan Ophthalmic Center of Sun Yat-sen University, priority 2022, published 2025)

System: form deprivation myopia (FDM) model
Experiment: Efficacy research in form deprivation myopia (FDM) model
Assay type: in vivo, colored guinea pigs
Conditions: applied locally to eyes
Excerpt: (1) A total of 40 healthy three-week-old colored guinea pigs were randomly selected and randomly divided into 8 groups with 5 guinea pigs in each group. The 8 guinea pig groups includes a first group: a normal control group, a second group: a myopia model-alone group, a third group: a myopia model+0.01% DHEA-based eye drop group, a fourth group: a myopia model+0.1% DHEA-based eye drop group, a fifth group: myopia model+1% DHEA-based eye drop group, a sixth group: a myopia model+2% DHEA-based eye drop group, a seventh group: a myopia model+DHEA-based eye ointment group, and an eighth group: a myopia model+DHEA-based gel group. There were no statistically-significant differences in the baseline diopter and AL of the right eye among the groups.
(2) Establishment of a form deprivation myopia (FDM) model: the right eye was covered and the left eye was normally opened. […]
A) Diopter measurement: the optometry was conducted with a streak retinoscope and lenses of different diopters, and an average of diopters in horizontal and vertical meridians was taken. The optometry was conducted 3 times, and an average was taken and recorded as a result.
B) AL measurement: ALs of both eyes were measured by an A-mode ultrasound instrument. Results of 6 measurements under waveform standards were selected, and an average was taken and recorded as a result, which was accurate to 0.01 mm.

With `C[C@]12CC[C@H](O)CC1=CC[C@@H]1[C@@H]2CC[C@]2(C)C(=O)CC[C@@H]12` [DHEA, 3-β-hydroxyandrost-5-en-17-one] the “Growth of axial length (AL) in animal models” value was “reduce the growth of axial length (AL)”.
